Test results as given in the NIST ThermoML archive (doi:10.1016/j.jct.2018.10.023).

Assay: wn = mass fraction of the nth substance listed
Settings: 101 kPa, Liquid, Digital holographic interferometer

CCC(C)CO (centres undefined) [2-methyl-1-butanol] + CCCCCCC
binary diffusion coefficient [m2/s]
Settings	w1 = 0.05	w1 = 0.15	w1 = 0.25	w1 = 0.35	w1 = 0.45	w1 = 0.55	w1 = 0.65	w1 = 0.75	w1 = 0.85	w1 = 0.95
288.15 K	1.02e-09	8.91e-10	7.99e-10	6.91e-10	6.03e-10	5.26e-10	4.81e-10	4.52e-10	4.61e-10	4.83e-10
298.15 K	1.24e-09	1.11e-09	1.01e-09	9.24e-10	8.43e-10	7.55e-10	7.02e-10	6.8e-10	6.9e-10	7.04e-10
308.15 K	1.49e-09	1.34e-09	1.24e-09	1.15e-09	1.08e-09	9.81e-10	9.31e-10	9.25e-10	9.36e-10	9.41e-10
318.15 K	1.73e-09	1.58e-09	1.5e-09	1.4e-09	1.33e-09	1.24e-09	1.17e-09	1.16e-09	1.18e-09	1.19e-09

CC(C)CCO [3-methylbutan-1-ol] + CCCCCCC
binary diffusion coefficient [m2/s]
Settings	w1 = 0.05	w1 = 0.15	w1 = 0.25	w1 = 0.35	w1 = 0.45	w1 = 0.55	w1 = 0.65	w1 = 0.75	w1 = 0.85	w1 = 0.95
288.15 K	1.74e-09	1.25e-09	9.07e-10	6.95e-10	6.1e-10	5.7e-10	6.18e-10	6.65e-10	7.11e-10	7.46e-10
298.15 K	1.99e-09	1.52e-09	1.17e-09	9.75e-10	8.69e-10	8.42e-10	8.91e-10	9.46e-10	9.85e-10	1.01e-09
308.15 K	2.28e-09	1.83e-09	1.44e-09	1.27e-09	1.15e-09	1.13e-09	1.17e-09	1.22e-09	1.29e-09	1.32e-09
318.15 K	2.54e-09	2.09e-09	1.75e-09	1.55e-09	1.43e-09	1.4e-09	1.46e-09	1.52e-09	1.56e-09	1.58e-09

[Cl-].[Li+] [lithium chloride] + O
298.15 K
Settings	binary diffusion coefficient [m2/s]
w1 = 0.011	1.31e-09
w1 = 0.027	1.23e-09

[Cl-].[K+] [potassium chloride] + O
Settings	binary diffusion coefficient [m2/s]
298.15 K, w1 = 0.025	1.85e-09

[Cl-].[Na+] [sodium chloride] + O
Settings	binary diffusion coefficient [m2/s]
298.15 K, w1 = 0.018	1.47e-09
